Test results from article PMC9468336, “The choanoflagellate pore-forming lectin SaroL-1 punches holes in cancer cells by targeting the tumor-related glycosphingolipid Gb3” (Communications Biology, 2022).
Read-outs that look alike come from different tables or passages of the source.

How the values were obtained:
SaroL-1 [1] = assay: Isothermal titration calorimetry of galactosyl-ligands with SaroL-1; type: binding, Salpingoeca rosetta; settings: ITC
[2] = target: T1, hemolytic activity of SaroL-1 on rabbit erythrocytes (Salpingoeca rosetta, UniProt F2UID9); assay: Inhibition of hemolytic activity (IHA) of SaroL-1 by carbohydrates; type: cell-based; settings: for inhibition: SaroL-1 217 nM, read-out: Mean % inhibition of hemolysis
T1 sequence (F2UID9 1-329): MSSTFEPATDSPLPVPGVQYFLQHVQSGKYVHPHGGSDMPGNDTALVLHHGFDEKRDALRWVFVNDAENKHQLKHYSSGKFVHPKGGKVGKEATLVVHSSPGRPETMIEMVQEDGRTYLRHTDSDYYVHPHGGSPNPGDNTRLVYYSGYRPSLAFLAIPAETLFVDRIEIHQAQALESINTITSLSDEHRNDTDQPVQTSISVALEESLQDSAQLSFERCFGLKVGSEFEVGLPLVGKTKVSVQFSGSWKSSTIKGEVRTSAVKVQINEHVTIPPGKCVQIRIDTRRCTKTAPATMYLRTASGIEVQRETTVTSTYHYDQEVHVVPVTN
Method: (§1) Both HA and IHA assays were performed in U-shaped 96-well microtiter plates. In both cases, a control negative experiment was performed with Buffer A added to erythrocyte solution (2% final concentration), and the resulting value was subtracted from all data.
(§2) IHA was performed in U-shaped 96-well microtiter plates. […] 4% rabbit erythrocytes were added to the mixture in a 1:1 ratio and incubated for 1–2 h at 37 °C. The samples were centrifuged, 2600 × g for 15 min at RT, and the absorbance of the supernatant was measured at 540 nm by a Tecan reader.

SaroL-1 [3] = target: T2, SaroL-1 (Salpingoeca rosetta, UniProt F2UID9); assay: Isothermal titration calorimetry (MicroCal iTC200) at 25 °C in 20 mM Tris/HCl pH 7.5, 100 mM NaCl, ligand titrated into SaroL-1, one-site model with stoichiometry N fixed to 3.; type: binding
T2 construct: gene PTSG_08235; monomeric in solution
Method: Isothermal Titration Calorimetry (ITC)
ITC experiments were performed with MicroCaliTC200 (Malvern Panalytical). Experiments were carried out at 25 °C ± 0.1 °C. SaroL-1 and ligands samples were prepared in Buffer A. The ITC cell contained SaroL-1 in a concentration range from 0.05 mM to 0.16 mM. The syringe contained the ligand solutions in a concentration from 10 to 50 mM. 2 μL of ligands solutions were injected into the sample cell at intervals of 120 s while stirring at 750 rpm. Integrated heat effects were analysed by nonlinear regression using one site binding model (MicroCal PEAQ-ITC Analysis software). The experimental data were fitted to a theoretical curve, which gave the dissociation constant (Kd) and the enthalpy of binding (∆H).

SaroL-1 [4] = target: T2, SaroL-1; assay: Inhibition of SaroL-1 (217 nM) induced hemolysis of rabbit erythrocytes after 1 h pre-incubation of lectin with sugar at RT, then 1-2 h at 37 °C, absorbance of supernatant at 540 nm.; type: cell-based; settings: n = 2
Method: Hemolytic assay (HA) and inhibition of hemolytic activity (IHA)
as §1, §2

OC[C@H]1O[C@@H](O[C@H]2[C@H](O)[C@@H](O)[C@H](O)O[C@@H]2CO)[C@H](O)[C@@H](O)[C@H]1O [Lactose, lactose]
binding to SaroL-1 (in words) (SaroL-1 [1]): very weak binding
IC50 ([2]; SaroL-1 217 nM pre-incubated with carbohydrate, read-out: IC50 of inhibition of hemolysis): 11900 µM

OC[C@H]1O[C@H](O[C@H]2[C@@H](O)[C@@H](CO)OC(O)[C@@H]2O)[C@H](O)[C@@H](O)[C@H]1O (stereo partly drawn) [αGal1-3Gal, α-D-galactopyranosyl-(1-3)-D-galactose]
Kd (SaroL-1 [3]): 1380 µM

CO[C@H]1O[C@H](CO)[C@H](O)[C@H](O)[C@H]1O [GalαOMe, α-methyl galactoside]
Kd (SaroL-1 [3]): 2170 µM

CC(=O)N[C@H]1C(O)O[C@H](CO)[C@H](O)[C@@H]1O (stereo partly shown) [GalNAc, N-acetylgalactosamine]
inhibition ([2]; sugar 0.003 mM): 3.76%
inhibition ([2]; sugar 0.006 mM): 7.37%
inhibition ([2]; sugar 0.0125 mM): 8.89%
inhibition ([2]; sugar 0.025 mM): 4%
inhibition ([2]; sugar 0.05 mM): 2.33%
inhibition ([2]; sugar 0.1 mM): 6.61%
inhibition ([2]; sugar 0.2 mM): 6.57%
inhibition ([2]; sugar 0.4 mM): 9.48%
inhibition ([2]; sugar 0.8 mM): 14.5%
inhibition ([2]; sugar 1.6 mM): 27.3%
inhibition ([2]; sugar 3.125 mM): 42.5%
inhibition ([2]; sugar 6.25 mM): 64%
inhibition ([2]; sugar 12.5 mM): 83.1%
inhibition ([2]; sugar 25 mM): 98.8%
inhibition ([2]; sugar 50 mM): 100%
Kd (SaroL-1 [3]): 2760 µM
IC50 (SaroL-1 [4]): 4900 µM

OC[C@H]1O[C@H](OCC2O[C@@H](O)[C@H](O)[C@@H](O)[C@@H]2O)[C@H](O)[C@@H](O)[C@H]1O (stereo partly shown) [melibiose]
inhibition of hemolysis (in words) ([2]; 10 mM carbohydrate): complete inhibition
inhibition ([2]; sugar 0.003 mM): 0.665%
inhibition ([2]; sugar 0.006 mM): 2.27%
inhibition ([2]; sugar 0.0125 mM): 3.73%
inhibition ([2]; sugar 0.025 mM): 7.43%
inhibition ([2]; sugar 0.05 mM): 7.01%
inhibition ([2]; sugar 0.1 mM): 9.7%
inhibition ([2]; sugar 0.2 mM): 15.2%
inhibition ([2]; sugar 0.4 mM): 22.7%
inhibition ([2]; sugar 0.8 mM): 36.1%
inhibition ([2]; sugar 1.6 mM): 54.5%
inhibition ([2]; sugar 3.125 mM): 76.3%
inhibition ([2]; sugar 6.25 mM): 91.8%
inhibition ([2]; sugar 12.5 mM): 100%
inhibition ([2]; sugar 25 mM): 100%
inhibition ([2]; sugar 50 mM): 100%
